What was measured:
Experiment in all cases: relative viability (nuclei count vs DMSO), 5 days (fraction); higher = more cells survive
201T = tested on: 201T
Outline: (§1)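 Relative viability was taken as the ratio of nuclei in treated wells to nuclei in vehicle wells. Lung cancer cell lines in 1536-well plates received compounds by pin tool one day after seeding, either one drug alone or a fixed anchor-drug dose plus five library-drug doses (not always all listed) in √10 steps. Nuclei were counted on 4× images after 5 days of treatment, and values are medians of duplicate plates.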

BEN = tested on: BEN
Outline: as §1

COR-L 105 = tested on: COR-L 105
Outline: as §1

EKVX = tested on: EKVX
Outline: as §1

EPLC-272H = tested on: EPLC-272H
Outline: as §1

H3255 = tested on: H3255
Outline: as §1

HCC-827 = tested on: HCC-827
Outline: as §1

LCLC-97TM1 = tested on: LCLC-97TM1
Outline: as §1

LOU-NH91 = tested on: LOU-NH91
Outline: as §1

LU99A = tested on: LU99A
Outline: as §1

NCI-H1437 = tested on: NCI-H1437
Outline: as §1

NCI-H1666 = tested on: NCI-H1666
Outline: as §1

NCI-H1975 = tested on: NCI-H1975
Outline: as §1

NCI-H2085 = tested on: NCI-H2085
Outline: as §1

NCI-H2087 = tested on: NCI-H2087
Outline: as §1

NCI-H2170 = tested on: NCI-H2170
Outline: as §1

NCI-H2342 = tested on: NCI-H2342
Outline: as §1

NCI-H647 = tested on: NCI-H647
Outline: as §1

NCI-H650 = tested on: NCI-H650
Outline: as §1

PC-3 [JPC-3] = tested on: PC-3 [JPC-3]
Outline: as §1

SW 1573 = tested on: SW 1573
Outline: as §1

COc1cc2nccc(Oc3ccc(NC(=O)Nc4cc(C)on4)c(Cl)c3)c2cc1OC [Tivozanib] + Cc1nc(Nc2ncc(C(=O)Nc3c(C)cccc3Cl)s2)cc(N2CCN(CCO)CC2)n1 [Dasatinib] (partner 0.075 µM)
relative viability (201T; first compound 0.005 µM): 0.536
relative viability (201T; first compound 0.01581 µM): 0.566
relative viability (201T; first compound 0.05 µM): 0.6
relative viability (201T; first compound 0.1581 µM): 0.57
relative viability (201T; first compound 0.5 µM): 0.553
relative viability (BEN; first compound 0.005 µM): 0.254
relative viability (BEN; first compound 0.01581 µM): 0.342
relative viability (BEN; first compound 0.05 µM): 0.369
relative viability (BEN; first compound 0.1581 µM): 0.225
relative viability (BEN; first compound 0.5 µM): 0.25
relative viability (COR-L 105; first compound 0.005 µM): 0.34
relative viability (COR-L 105; first compound 0.01581 µM): 0.361
relative viability (COR-L 105; first compound 0.05 µM): 0.467
relative viability (COR-L 105; first compound 0.1581 µM): 0.269
relative viability (COR-L 105; first compound 0.5 µM): 0.354
relative viability (EKVX; first compound 0.005 µM): 0.571
relative viability (EKVX; first compound 0.01581 µM): 0.605
relative viability (EKVX; first compound 0.05 µM): 0.483
relative viability (EKVX; first compound 0.5 µM): 0.474
relative viability (EPLC-272H; first compound 0.005 µM): 0.378
relative viability (EPLC-272H; first compound 0.01581 µM): 0.375
relative viability (EPLC-272H; first compound 0.05 µM): 0.447
relative viability (EPLC-272H; first compound 0.1581 µM): 0.263
relative viability (EPLC-272H; first compound 0.5 µM): 0.413
relative viability (H3255; first compound 0.005 µM): 0.316
relative viability (H3255; first compound 0.01581 µM): 0.432
relative viability (H3255; first compound 0.05 µM): 0.347
relative viability (H3255; first compound 0.1581 µM): 0.345
relative viability (H3255; first compound 0.5 µM): 0.326
relative viability (HCC-827; first compound 0.005 µM): 0.288
relative viability (HCC-827; first compound 0.01581 µM): 0.36
relative viability (HCC-827; first compound 0.05 µM): 0.317
relative viability (HCC-827; first compound 0.1581 µM): 0.338
relative viability (HCC-827; first compound 0.5 µM): 0.231
relative viability (LCLC-97TM1; first compound 0.005 µM): 0.941
relative viability (LCLC-97TM1; first compound 0.01581 µM): 0.855
relative viability (LCLC-97TM1; first compound 0.05 µM): 0.923
relative viability (LCLC-97TM1; first compound 0.1581 µM): 0.921
relative viability (LCLC-97TM1; first compound 0.5 µM): 0.836
relative viability (LOU-NH91; first compound 0.005 µM): 0.514
relative viability (LOU-NH91; first compound 0.01581 µM): 0.569
relative viability (LOU-NH91; first compound 0.05 µM): 0.595
relative viability (LOU-NH91; first compound 0.1581 µM): 0.518
relative viability (LOU-NH91; first compound 0.5 µM): 0.525
relative viability (LU99A; first compound 0.005 µM): 0.356
relative viability (LU99A; first compound 0.01581 µM): 0.599
relative viability (LU99A; first compound 0.05 µM): 0.656
relative viability (LU99A; first compound 0.1581 µM): 0.489
relative viability (LU99A; first compound 0.5 µM): 0.474
relative viability (NCI-H1437; first compound 0.005 µM): 0.292
relative viability (NCI-H1437; first compound 0.01581 µM): 0.449
relative viability (NCI-H1437; first compound 0.05 µM): 0.38
relative viability (NCI-H1437; first compound 0.1581 µM): 0.284
relative viability (NCI-H1437; first compound 0.5 µM): 0.276
relative viability (NCI-H1666; first compound 0.005 µM): 0.785
relative viability (NCI-H1666; first compound 0.01581 µM): 0.831
relative viability (NCI-H1666; first compound 0.05 µM): 0.801
relative viability (NCI-H1666; first compound 0.1581 µM): 0.819
relative viability (NCI-H1666; first compound 0.5 µM): 0.825
relative viability (NCI-H1975; first compound 0.005 µM): 0.381
relative viability (NCI-H1975; first compound 0.01581 µM): 0.367
relative viability (NCI-H1975; first compound 0.05 µM): 0.417
relative viability (NCI-H1975; first compound 0.1581 µM): 0.278
relative viability (NCI-H1975; first compound 0.5 µM): 0.315
relative viability (NCI-H2085; first compound 0.005 µM): 0.226
relative viability (NCI-H2085; first compound 0.01581 µM): 0.207
relative viability (NCI-H2085; first compound 0.05 µM): 0.233
relative viability (NCI-H2085; first compound 0.1581 µM): 0.315
relative viability (NCI-H2085; first compound 0.5 µM): 0.224
relative viability (NCI-H2087; first compound 0.005 µM): 0.6
relative viability (NCI-H2087; first compound 0.01581 µM): 0.742
relative viability (NCI-H2087; first compound 0.05 µM): 0.794
relative viability (NCI-H2087; first compound 0.1581 µM): 0.911
relative viability (NCI-H2087; first compound 0.5 µM): 0.772
relative viability (NCI-H2170; first compound 0.005 µM): 0.599
relative viability (NCI-H2170; first compound 0.01581 µM): 0.494
relative viability (NCI-H2170; first compound 0.05 µM): 0.616
relative viability (NCI-H2170; first compound 0.1581 µM): 0.348
relative viability (NCI-H2170; first compound 0.5 µM): 0.569
relative viability (NCI-H2342; first compound 0.005 µM): 0.301
relative viability (NCI-H2342; first compound 0.01581 µM): 0.333
relative viability (NCI-H2342; first compound 0.05 µM): 0.326
relative viability (NCI-H2342; first compound 0.5 µM): 0.33
relative viability (NCI-H647; first compound 0.005 µM): 0.152
relative viability (NCI-H647; first compound 0.01581 µM): 0.227
relative viability (NCI-H647; first compound 0.05 µM): 0.189
relative viability (NCI-H647; first compound 0.1581 µM): 0.193
relative viability (NCI-H647; first compound 0.5 µM): 0.15
relative viability (NCI-H650; first compound 0.005 µM): 0.344
relative viability (NCI-H650; first compound 0.01581 µM): 0.509
relative viability (NCI-H650; first compound 0.05 µM): 0.447
relative viability (NCI-H650; first compound 0.1581 µM): 0.368
relative viability (NCI-H650; first compound 0.5 µM): 0.387
relative viability (PC-3 [JPC-3]; first compound 0.005 µM): 0.934
relative viability (PC-3 [JPC-3]; first compound 0.01581 µM): 1
relative viability (PC-3 [JPC-3]; first compound 0.05 µM): 0.983
relative viability (PC-3 [JPC-3]; first compound 0.1581 µM): 0.812
relative viability (PC-3 [JPC-3]; first compound 0.5 µM): 0.951
relative viability (SW 1573; first compound 0.005 µM): 0.534
relative viability (SW 1573; first compound 0.01581 µM): 0.566
relative viability (SW 1573; first compound 0.05 µM): 0.46
relative viability (SW 1573; first compound 0.1581 µM): 0.513
relative viability (SW 1573; first compound 0.5 µM): 0.381
